# “Also recorded” adds a separate entry of the source.
# Tests used:
# [1] = tested on: binding of EGF to T47D cells; assay: Binding of 125I-EGF to tumor cells (R5020-pretreated T47D cells); type: cell-based, human; settings: for block of the R5020-caused increase of 125I-EGF binding to intact T47D cells: T47D cells treated 48 hours with 2 or 20 nM R5020 plus test substance, FIG. 5
# Description: R5020-Pretreated T47D cells were incubated for 2 hours with ^125I-EGF at 4° C. The unspecific binding was always less than 10% of the total binding.
# In FIG. 4, a Scatchard analysis of the ^125I-EGF binding to T47D cells is shown. The cells were cultivated for 48 hours in the presence of 20 nM of R5020 with or without 20 nM of compound A and then washed. Then, the EGF-binding over a concentration range of 0.25 to 150 ng/ml of EGF was determined by incubation for 2 hours at 4° C. The insertions show the amount of bonded ligands relative to the logarithm of the free ligand concentration.
# In FIG. 5, the binding of ^125I-EGF to intact T47D cells is shown. For this purpose, the cells were treated for 48 hours with 2 or 20 nM of R5020 plus compound A or onapristone or compound A alone.
# [2] = tested on: breast carcinoma cell line T47D; assay: Growth studies, antiproliferative action on T47D cells (crystal violet); type: cell-based, human; settings: 0.1 nM estradiol, 6 days, increasing concentrations, FIG. 1
# Description: The tumor cells were cultivated at 5000 cells/well in 96-well plates for 6 days in RPMI medium plus 10% bovine serum, 200 nM of insulin and 0.1 nM of estradiol in the presence of the compounds that are indicated in each case, and the growth was determined by staining with crystal violet.
# 2. […] T47D cells were cultivated in the presence (upper cross-hatching) or absence (lower cross-hatching) of 0.1 nM of E2 plus increasing concentrations of compound A (▴), onapristone (▪), ZK191703 (●) or 4-OH-Tam (♦).
# [3] = target: T1, progesterone receptor (PR) (Homo sapiens, UniProt P06401); assay: Transactivation assay (MTV-LUC, luciferase) in T47D cells; type: cell-based; settings: T47D cells transiently transfected with MTV-LUC, treated with R5020 plus increasing concentrations, 24 hours, FIG. 3
# T1 construct: T47D cells were transiently transfixed with MTV-LUC; endogenous in cells; host or cells: T47D human breast carcinoma cells
# T1 sequence (P06401 1-933): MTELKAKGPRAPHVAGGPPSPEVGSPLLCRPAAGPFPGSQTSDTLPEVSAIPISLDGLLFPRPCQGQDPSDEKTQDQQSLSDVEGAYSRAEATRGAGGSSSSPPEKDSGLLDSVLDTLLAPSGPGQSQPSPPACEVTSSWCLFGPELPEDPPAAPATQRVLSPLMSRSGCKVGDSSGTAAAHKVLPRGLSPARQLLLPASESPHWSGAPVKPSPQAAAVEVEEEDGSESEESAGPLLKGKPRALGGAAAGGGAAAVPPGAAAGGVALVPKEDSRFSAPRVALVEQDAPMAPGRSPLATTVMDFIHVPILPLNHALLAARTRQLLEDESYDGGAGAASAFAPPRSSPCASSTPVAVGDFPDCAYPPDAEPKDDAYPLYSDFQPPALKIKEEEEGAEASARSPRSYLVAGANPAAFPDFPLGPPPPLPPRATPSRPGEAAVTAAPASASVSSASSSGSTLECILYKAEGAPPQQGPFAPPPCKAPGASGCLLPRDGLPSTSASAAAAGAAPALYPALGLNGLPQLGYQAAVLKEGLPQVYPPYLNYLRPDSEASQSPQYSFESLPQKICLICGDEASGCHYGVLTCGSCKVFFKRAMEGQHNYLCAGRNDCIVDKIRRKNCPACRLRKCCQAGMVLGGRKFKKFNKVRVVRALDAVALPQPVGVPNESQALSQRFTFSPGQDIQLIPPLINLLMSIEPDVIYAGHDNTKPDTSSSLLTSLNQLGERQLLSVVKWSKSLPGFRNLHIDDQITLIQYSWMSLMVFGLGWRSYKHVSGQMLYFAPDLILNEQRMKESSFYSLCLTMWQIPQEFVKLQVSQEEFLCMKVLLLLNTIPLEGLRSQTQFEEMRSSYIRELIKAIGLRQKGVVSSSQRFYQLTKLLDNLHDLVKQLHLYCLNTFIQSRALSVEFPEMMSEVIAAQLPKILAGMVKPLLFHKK
# Description: T47D cells were transiently transfixed with MTV-LUC (Cato et al., EMBO J., 9: 2237-40) and cultivated in the absence or the presence of 1 nM of R5020. In the test on a PR-mediated antagonism, the transiently transfixed T47D cells were treated with R5020 and in addition with increasing concentrations of compound A or RU486. After 24 hours, a luciferase test was performed.
# In the test for a PR-mediated antagonism, the transiently transfixed T47D cells were treated with 0.1 nM of R5020 and increasing concentrations of compound A or […] (b).
# EGF-receptor expression = EGF-receptor expression in R5020-stimulated T47D cells; type: cell-based, human; settings: T47D cells stimulated with R5020
block of transcriptional activity of PR (PR-mediated antagonism) [3],Structure (SMILES),block of the R5020-caused increase of 125I-EGF binding to intact T47D cells [1],antiproliferative action / block of estradiol-stimulated growth of T47D cells [2],block of R5020-increased EGF-receptor expression (EGF-receptor expression),"block of the R5020-caused increase of 125I-EGF binding (Scatchard analysis) ([1]; T47D cells, 48 hours, 20 nM R5020 with 20 nM compound A, EGF 0.25 to 150 ng/ml, 2 hours at 4° C, FIG. 4)"
–,"CN(C)c1ccc([C@H]2C[C@]3(C)[C@@H](CC[C@]3(O)CCCO)[C@@H]3CCC4=CC(=O)CCC4=C32)cc1 [onapristone, 11β-[p-(dimethylamino)phenyl]-17α-hydroxy-17-(3-hydroxypropyl)-13α-estra-4,9-dien-3-one, reference compound]",considerably weaker effect; also recorded: less efficiently,–,–,–
could be blocked,"CC(=O)c1ccc([C@H]2C[C@@]3(C)[C@@H](CC[C@@]3(O)C(F)(F)C(F)(F)F)[C@@H]3CCC4=CC(=O)CCC4=C32)cc1 [compound A, 11β-(4-acetylphenyl)-17β-hydroxy-17α-(1,1,2,2,2-pentafluoroethyl)-estra-4,9-dien-3-one]",blocks the increase of the EGF-binding; also recorded: could be prevented,significant antiproliferative action at extremely small concentrations; also recorded: effectively blocked,blocked,block the increase of the EGF binding
